Laboratory results published in article PMC3237054 (2011).

What was measured:
[1] = biological target: T1, LPA3 (hLPA3) (Homo sapiens, UniProt Q9UBY5); assay type: biochemical; conditions: read-out: Ki; cho cell membranes
T1 sequence (Q9UBY5 1-353): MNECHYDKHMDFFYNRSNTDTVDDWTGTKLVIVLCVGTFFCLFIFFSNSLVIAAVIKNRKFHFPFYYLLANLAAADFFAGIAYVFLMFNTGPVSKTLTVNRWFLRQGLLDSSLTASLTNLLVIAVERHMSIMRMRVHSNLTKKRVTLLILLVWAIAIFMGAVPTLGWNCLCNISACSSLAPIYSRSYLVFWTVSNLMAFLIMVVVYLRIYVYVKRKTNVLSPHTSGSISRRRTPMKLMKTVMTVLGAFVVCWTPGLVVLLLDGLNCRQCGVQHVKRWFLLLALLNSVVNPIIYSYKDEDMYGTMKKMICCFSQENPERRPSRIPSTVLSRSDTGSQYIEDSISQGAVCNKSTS

[2] = biological target: LPA1 (hLPA1) (Homo sapiens, UniProt Q92633); assay type: biochemical; conditions: read-out: Ki; cell membranes
Chain of LPA1 (hLPA1) (Q92633 whole entry): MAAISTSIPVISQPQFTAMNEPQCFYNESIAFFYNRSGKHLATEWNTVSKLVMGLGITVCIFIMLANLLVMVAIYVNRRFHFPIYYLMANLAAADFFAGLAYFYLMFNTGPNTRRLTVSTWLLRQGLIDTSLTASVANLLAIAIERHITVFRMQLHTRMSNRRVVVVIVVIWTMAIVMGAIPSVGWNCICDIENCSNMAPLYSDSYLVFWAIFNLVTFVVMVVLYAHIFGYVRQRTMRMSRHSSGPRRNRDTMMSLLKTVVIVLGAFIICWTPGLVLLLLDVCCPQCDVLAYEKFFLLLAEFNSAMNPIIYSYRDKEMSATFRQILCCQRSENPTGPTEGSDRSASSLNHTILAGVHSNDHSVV

In the case of VPC51299 [6.1], the Kb [1] is reported as 512 nM and the Kb [2] is reported as 143 nM.
